Results: US4820695A, “C-20-dihydro-deoxy-(cyclic amino)-derivatives of macrolide antibiotics” (priority 1987, dated 1989)
≈ marks a conversion by molar mass, not a printed value. Where two headings read alike, the source gives them in different places.

Key:
[1] = test system: Streptococcus pyogenes C203; experiment: ED50 in mice experimentally infected with S. pyogenes C203 (Table XI); format: in vivo; settings: doses given 1 and 4 hours postinfection
Method: The C-20 modified derivatives of this invention have shown in vivo antimicrobial activity against experimentally-induced infections in laboratory animals. When two doses of test compound were administered to mice experimentally infected with S. pyogenes C203, the activity observed was measured as an ED50 value [effective dose in mg/kg to protect 50% of the test animals: see Warren Wick, et al., J. Bacteriol. 81, 233-235 (1961)].
^a mg/kg × 2; doses given 1 and 4 hours postinfection

Escherichia coli EC14 = experiment: MIC, standard agar-dilution assay (Table IX); format: cell-based; settings: read-out: MIC
[2] = test system: Streptococcus Group D 2041; experiment: MIC, standard agar-dilution assay (Table IX); format: cell-based; settings: GROUPD2041, read-out: MIC
[3] = test system: Staphylococcus aureus S13E; experiment: MIC, standard agar-dilution assay (Table IX); format: cell-based; settings: Staphylococcus aureus, S13E
Escherichia coli N10 = experiment: MIC, standard agar-dilution assay (Table IX); format: cell-based; settings: read-out: MIC
Klebsiella X26 = experiment: MIC, standard agar-dilution assay (Table IX); format: cell-based; settings: read-out: MIC
[4] = test system: Streptococcus pyogenes C203; experiment: MIC, standard agar-dilution assay (Table IX); format: cell-based; settings: read-out: MIC
[5] = test system: Haemophilus influenzae C.L.; experiment: MIC, standard agar-dilution assay (Table IX); format: cell-based; settings: Ampicillin-sensitive strain, read-out: MIC
[6] = test system: Haemophilus influenzae 76; experiment: MIC, standard agar-dilution assay (Table IX); format: cell-based; settings: Haemophilus influenzae 76, Ampicillin-resistant strain, read-out: MIC
[7] = test system: Staphylococcus epidermidis 222; experiment: MIC, standard agar-dilution assay (Table IX); format: cell-based; settings: read-out: MIC
[8] = test system: Staphylococcus aureus X400; experiment: MIC, standard agar-dilution assay (Table IX); format: cell-based; settings: Staphylococcus aureus X400, Methicillin-resistant strain, read-out: MIC
[9] = test system: Streptococcus Group D X66; experiment: MIC, standard agar-dilution assay (Table IX); format: cell-based; settings: read-out: MIC
Escherichia coli TEM = experiment: MIC, standard agar-dilution assay (Table IX); format: cell-based; settings: read-out: MIC
[10] = test system: Streptococcus pneumoniae Park I; experiment: MIC, standard agar-dilution assay (Table IX); format: cell-based
Mycoplasma synoviae 40A = experiment: MIC, broth-dilution microtiter test (Table X); format: cell-based; settings: Mycoplasmopsis synoviae, read-out: MIC
Excerpt: (§1) The MIC's in Table X were obtained using conventional broth-dilution microtiter tests.

[11] = test system: Pasteurella multocida 60A; experiment: MIC, broth-dilution microtiter test (Table X); format: cell-based; settings: Avian isolate, read-out: MIC
Excerpt: as §1

Mycoplasma hyorhinis 29E = experiment: MIC, broth-dilution microtiter test (Table X); format: cell-based; settings: read-out: MIC
Excerpt: as §1

[12] = test system: Mycoplasma hyopneumoniae S5972; experiment: MIC, broth-dilution microtiter test (Table X); format: cell-based; settings: Mesomycoplasma hyopneumoniae, read-out: MIC
Excerpt: as §1

Staphylococcus aureus = experiment: MIC, broth-dilution microtiter test (Table X); format: cell-based; settings: read-out: MIC
Excerpt: as §1

[13] = test system: Mycoplasma gallisepticum 29C; experiment: MIC, broth-dilution microtiter test (Table X); format: cell-based; settings: Mycoplasmoides gallisepticum, read-out: MIC
Excerpt: as §1

[14] = test system: Pasteurella hemolytica 22C; experiment: MIC, broth-dilution microtiter test (Table X); format: cell-based; settings: read-out: MIC
Excerpt: as §1

Streptococcus sp. 19F = experiment: MIC, broth-dilution microtiter test (Table X); format: cell-based; settings: read-out: MIC
Excerpt: as §1

[15] = test system: Pasteurella multocida 17E; experiment: MIC, broth-dilution microtiter test (Table X); format: cell-based; settings: Bovine isolate, read-out: MIC
Excerpt: as §1

[16] = test system: Staphylococcus epidermidis EPI1; experiment: MIC, standard agar-dilution assay (Table IX); format: cell-based
Staphyloccus aureus X1.1 = experiment: MIC, standard agar-dilution assay (Table IX); format: cell-based, Staphylococcus aureus; settings: Staphylococcus aureus, read-out: MIC
[17] = Titratable groups in 66% aqueous DMF (Tables XIV-XVI); format: physicochemical
Excerpt: ^c Run in 66% aqueous DMF
^d Run in 66% aqueous DMF

[18] = test system: Staphylococcus aureus V41; experiment: MIC, standard agar-dilution assay (Table IX); format: cell-based; settings: Staphylococcus aureus V41, Penicillin-resistant strain, read-out: MIC
[19] = Streptococcus pneumoniae Park I, agar-dilution, read-out: MIC
[20] = Staphylococcus epidermidis EPI1, agar-dilution, read-out: MIC
[21] = Streptococcus pyogenes, C203, Oral, read-out: ED50
[22] = Streptococcus pyogenes, C203, sc, Subcutaneous, read-out: ED50

SMILES | MIC (Escherichia coli EC14) [µg/mL] | MIC [2] [µg/mL] | MIC [3] [µg/mL] | MIC (Escherichia coli N10) [µg/mL] | MIC (Klebsiella X26) [µg/mL] | MIC [4] [µg/mL] | MIC [5] [µg/mL] | MIC [6] [µg/mL] | MIC [7] [µg/mL] | MIC [8] [µg/mL] | MIC [9] [µg/mL] | MIC (Escherichia coli TEM) [µg/mL] | MIC [10, 19] [µg/mL] | MIC (Mycoplasma synoviae 40A) [µg/mL] | MIC [11] [µg/mL] | MIC (Mycoplasma hyorhinis 29E) [µg/mL] | MIC [12] [µg/mL] | MIC (Staphylococcus aureus) [µg/mL] | MIC (Staphyloccus aureus X1.1) [µg/mL] | MIC [18] [µg/mL] | further results
CCC1OC(=O)CC(O)C(C)C(OC2OC(C)C(O)C(N(C)C)C2O)C(CCN2CC(C)CC(C)C2)CC(C)C(=O)C=CC(C)=CC1COC1OC(C)C(O)C(OC)C1OC (racemic) [Compound D35] |  |  |  |  |  |  |  |  |  |  |  |  |  |  |  |  |  |  |  |  | ED50 ([1]; Oral): 10.93 mg/kg × 2; ED50 ([1]; Subcutaneous): 0.88 mg/kg × 2
CCC1OC(=O)CC(O)C(C)C(OC2OC(C)C(O)C(N(C)C)C2O)C(CCN2CCCC(C(=O)N(CC)CC)C2)CC(C)C(=O)C=CC(C)=CC1COC1OC(C)C(O)C(OC)C1OC (stereo not drawn) [Compound D15, 20-DH-DO-20-[3-(N,N-diethylcarbamoyl)piperidin-1-yl]desmycosin] | > 128 | 32 (≈ 34 µM) | 2 (≈ 2.13 µM) | > 128 | 32 (≈ 34 µM) | 0.5 (≈ 0.532 µM) | 32 (≈ 34 µM) | 32 (≈ 34 µM) | 1 (≈ 1.06 µM) | 4 (≈ 4.25 µM) | 32 (≈ 34 µM) | 64 (≈ 68.1 µM) | 1 (≈ 1.06 µM) | 1.56 (≈ 1.66 µM) | 12.5 (≈ 13.3 µM) | > 50 | 3.12 (≈ 3.32 µM) | 6.25 (≈ 6.65 µM) | 2 (≈ 2.13 µM) | 2 (≈ 2.13 µM) | MIC [13]: 3.12 µg/mL (≈ 3.32 µM); MIC [14]: 25 µg/mL (≈ 26.6 µM); MIC (Streptococcus sp. 19F): 12.5 µg/mL (≈ 13.3 µM); MIC [15]: 12.5 µg/mL (≈ 13.3 µM); MIC [16, 20]: 2 µg/mL (≈ 2.13 µM); pKa ([17]; Titratable groups): 8.6; pKa ([17]; Titratable groups (first value)): 7.4
CCC1OC(=O)CC(O)C(C)C(OC2OC(C)C(OC3CC(C)(O)C(O)C(C)O3)C(N(C)C)C2O)C(CCN2CCCCCCC2)CC(C)C(=O)C=CC(C)=CC1COC1OC(C)C(O)C(OC)C1OC (stereo not drawn) [Compound T6, 20-DH-DO-20-(octahydroazocin-1-yl)tylosin] | > 128 | > 128 | 4 (≈ 3.95 µM) | > 128 | > 128 | 2 (≈ 1.97 µM) | 64 (≈ 63.2 µM) | > 128 | 2 (≈ 1.97 µM) | 8 (≈ 7.89 µM) | > 128 | > 128 | 8 (≈ 7.89 µM) | 0.78 (≈ 0.77 µM) | > 50 | > 50 | 12.5 (≈ 12.3 µM) | 12.5 (≈ 12.3 µM) | 4 (≈ 3.95 µM) | 4 (≈ 3.95 µM) | MIC [13]: 3.12 µg/mL (≈ 3.08 µM); MIC [14]: 50 µg/mL (≈ 49.3 µM); MIC (Streptococcus sp. 19F): 50 µg/mL (≈ 49.3 µM); MIC [15]: > 50 µg/mL; MIC [16, 20]: 4 µg/mL (≈ 3.95 µM); ED50 [1, 21]: 44 mg/kg; ED50 [1, 22]: > 10 mg/kg
CCC1OC(=O)CC(O)C(C)C(OC2OC(C)C(OC3CC(C)(O)C(O)C(C)O3)C(N(C)C)C2O)C(CCN2CC3CCC(CC3)C2)CC(C)C(=O)C=CC(C)=CC1COC1OC(C)C(O)C(OC)C1OC (stereo not drawn) [Compound T13, 20-DH-DO-20-(3-azabicyclo[3.2.2]nonan-3-yl)tylosin] | > 128 | > 128 | 4 (≈ 3.9 µM) | > 128 | > 128 | 4 (≈ 3.9 µM) | 128 (≈ 125 µM) | 128 (≈ 125 µM) | 2 (≈ 1.95 µM) | 8 (≈ 7.8 µM) | 128 (≈ 125 µM) | > 128 |  | 1.56 (≈ 1.52 µM) | > 50 | > 50 | 25 (≈ 24.4 µM) | 6.25 (≈ 6.1 µM) | 4 (≈ 3.9 µM) | 4 (≈ 3.9 µM) | MIC ([10]; Streptococcus pneumoniae): 16 µg/mL (≈ 15.6 µM); MIC [13]: 1.56 µg/mL (≈ 1.52 µM); MIC [14]: 50 µg/mL (≈ 48.8 µM); MIC (Streptococcus sp. 19F): 50 µg/mL (≈ 48.8 µM); MIC [15]: > 50 µg/mL; MIC ([16]; Staphylococcus epidermidis, EPI1): 4 µg/mL (≈ 3.9 µM); ED50 [1, 21]: 30 mg/kg; ED50 [1, 22]: > 10 mg/kg
CCC1OC(=O)CC(O)C(C)C(OC2OC(C)C(O)C(N(C)C)C2O)C(CCN2CCCC(C)(C)C2)CC(C)C(=O)C=CC(C)=CC1COC1OC(C)C(O)C(OC)C1OC (stereo not drawn) [Compound D40, 20-DH-DO-20-(3,3-dimethylpiperidin-1-yl)desmycosin] | 64 (≈ 73.6 µM) | 8 (≈ 9.2 µM) | 0.5 (≈ 0.575 µM) | 64 (≈ 73.6 µM) | 16 (≈ 18.4 µM) | 0.25 (≈ 0.288 µM) | 4 (≈ 4.6 µM) | 8 (≈ 9.2 µM) | 0.25 (≈ 0.288 µM) | 0.5 (≈ 0.575 µM) | 4 (≈ 4.6 µM) | 16 (≈ 18.4 µM) | 2 (≈ 2.3 µM) |  |  |  |  |  | 0.5 (≈ 0.575 µM) | 0.5 (≈ 0.575 µM) | MIC [16, 20]: 0.5 µg/mL (≈ 0.575 µM)
